{
  "source": "patent US20160007597A1",
  "about": "“TREATING AGENT FOR PLANT CELL WALLS, SUBSTANCE DELIVERY METHOD USING TREATING AGENT, AND SUBSTANCE DELIVERY SYSTEM” (SUNTORY HOLDINGS LIMITED, priority 2013, published 2016)",
  "key": {"leaves": {"test_system": "leaves", "protocol": "To verify the migration of the FT protein applied to leaves, the shoot apex after application was sampled and analyzed by Western blotting in an attempt to detect the FT protein. To ensure long-term application to leaves, concentration studies were conducted for EDTA."}, "onion epidermal cells": {"test_system": "onion epidermal cells", "experiment": "Cell wall permeability: intracellular uptake of GFP or GFP-FT in onion bulb epidermal cells after trypsin treatment (fluorescence microscopy)", "format": "cell-based", "conditions": "0.1 mg GFP, 20 μM R9 peptide", "protocol": "Various test solutions containing a fluorescent protein, GFP or GFP-FT, and the R9 peptide were prepared and applied to onion bulbs for verification of GFP uptake. The ingredients of the test solutions verified are shown below:\nsalt (NaCl), acidic buffer (citric acid), organic solvent (toluene, ethanol), cell wall lyase (pectolyase), surfactant (saponin, Silwet L-77, Tween 20, Triton X-100, CHAPS, CTAB, SDS), chelator (EGTA, EDTA, CDTA, BAPTA), DMSO, and glycerol.\nOnion bulbs were cut into boat-shaped pieces, and test solutions (100 μl each) prepared at various concentration conditions (0.1× PBS, 1 to 100 mM chelator, 0.005% to 0.05% surfactant, 0.1 mg GFP, 20 μM R9 peptide) were applied to their surface. Each sample was allowed to stand in a dish at room temperature for 12 hours while being kept under humid conditions. Then, the test solutions were removed and the samples were washed with distilled water. After a 0.25% trypsin solution was applied in 100 μl volumes, the samples were allowed to stand for 30 minutes. After removal of the trypsin solution, the samples were washed with distilled water and their epidermal cell layers were peeled to prepare specimens, which were then observed for intracellular uptake of GFP under a fluorescence microscope (Leica, DM6000B)."}, "[1]": {"test_system": "in vitro shoots of torenia", "experiment": "Induction of flower buds in in vitro shoots of torenia", "format": "in vivo", "conditions": "torenia in test tubes; 33 μg/ml FT protein, 20 μM R9 peptide, 0.1× PBS, 1 mM EDTA, 0.005% Silwet L-77; applied five times every 2 to 3 days", "protocol": "(§1) In most cases, in vitro shoots of torenia will form no flower buds in test tubes. Likewise, in vitro shoots of petunia will form no flower buds under short-day conditions. In these in vitro shoots, the FT protein was applied to their leaf surface in an attempt to induce flower buds. To the shoot apex and leaf surface of torenia and petunia cultivated in test tubes, a test solution (33 μg/ml FT protein, 20 μM R9 peptide, 0.1× PBS, 1 mM EDTA, 0.005% Silwet L-77) was applied by being spread thinly to ensure a uniform distribution. Application was repeated five times every 2 to 3 days, and culture was also continued thereafter. As a result, flower buds were formed at around 40 days after application and eventually brought into flower in test tubes (FIG. 4)."}, "[2]": {"test_system": "torenia bud cuttings (shoot apex)", "experiment": "Migration of FT protein applied to leaves to the shoot apex, detected by Western blotting", "format": "in vivo", "conditions": "Condition 3: FT protein, 20 μM R9 peptide, 0.1× PBS, 1 mM EDTA, 0.005% Silwet L-77, applied to leaves twice; sampled one week after the first application", "protocol": "Bud cuttings were prepared from torenia's branches each including the shoot apex. These branches were cut to an even length of approximately 10 cm containing three nodes or so, each of which was put into a 5 ml tube containing 4 ml of 0.1× PBS, followed by covering the mouth of each tube with a parafilm to avoid evaporation of PBS. Four bud cuttings were prepared for each test group, and test solutions (90 μl each) prepared under three conditions (Condition 1: 0.1× PBS, 1 mM EDTA, 0.005% Silwet L-77; Condition 2: 33 μg/ml FT protein, 0.1× PBS, 1 mM EDTA, 0.005% Silwet L-77; Condition 3: FT protein, 20 μM R9 peptide, 0.1× PBS, 1 mM EDTA, 0.005% Silwet L-77) were applied by being spread thinly over leaves at a position which was two nodes (about 3 cm) apart from the shoot apex. After air drying, these samples were maintained at 25° C. in a thermostatic incubator.\nAfter 3 days, the test solutions were applied again, and after one week of the first application, the shoot apexes were sampled. Proteins were extracted from the shoot apex samples by the acetone method. 250 μl of an extraction buffer (10 mM Tris-HCl (pH 8.0), 0.1% CHAPS, 4.5 mM NaCl, 0.1 mM DTT, 0.2 mM EDTA, complete ULTRA1 tablets (Roche Diagnostics)) was added to each shoot apex sample obtained from 4 bud cuttings, followed by sufficient homogenization in a mixer together with zirconia beads of 4 mm diameter. […]"}, "[3]": {"test_system": "in vitro shoots of petunia", "experiment": "Induction of flower buds in in vitro shoots of petunia", "format": "in vivo", "conditions": "petunia in test tubes; 33 μg/ml FT protein, 20 μM R9 peptide, 0.1× PBS, 1 mM EDTA, 0.005% Silwet L-77; applied five times every 2 to 3 days", "protocol": "as §1"}, "protoplasts of torenia": {"test_system": "protoplasts of torenia", "experiment": "GFP uptake into torenia protoplasts in the presence of R9 peptide (fluorescence microscopy)", "format": "cell-based", "conditions": "0.1 mg GFP", "protocol": "To verify that the R9 peptide was also evenly effective for plant cells other than cultured cells, protoplasts of torenia were used and observed for their uptake of green fluorescent protein (GFP) in the presence of the R9 peptide. Torenia leaves (0.5 g) were treated in an enzyme solution (1% Onozuka RS, 0.1% pectolyase Y-23, 0.45 M mannitol) at 30° C. for 2 hours to prepare protoplasts. The protoplasts were washed with 0.45 M mannitol and then divided into 50 μl aliquots, followed by centrifugation to prepare protoplasts. The protoplasts were each suspended in 50 μl of a buffer (0.45 M mannitol, 1× PBS, 0.1 mg GFP, (0, 20, 200 μM) R9 peptide) and observed for intracellular migration of GFP under a fluorescence microscope (FIG. 1)."}, "[4]": {"conditions": "combination of 1 to 50 mM EDTA or EGTA and 0.005% to 0.01% Silwet L-77 or Tween 20, 12 hours"}},
  "note": "Like-named read-outs stand apart in the source and are kept apart here.",
  "data": [
    {"compound": "O=C(O)CN(CCN(CC(=O)O)CC(=O)O)CC(=O)O", "note": "[EDTA, ethylenediaminetetraacetic acid]", "values": [
      {"measurement": "damage to leaves", "setting": "leaves; 1 mM EDTA", "result": "able to be used without any problems"},
      {"measurement": "damage to leaves", "setting": "leaves; 100 mM EDTA", "result": "cause damage to leaves"},
      {"measurement": "intracellular GFP fluorescence after trypsin treatment", "setting": "onion epidermal cells; [4]", "result": "granular GFP fluorescence was strongly observed"}
    ]},
    {"compound": "O=C(O)CN(CCOCCOCCN(CC(=O)O)CC(=O)O)CC(=O)O", "note": "[EGTA, O,O′-bis(2-aminoethyl)ethylene glycol-N,N,N′,N′-tetraacetic acid]", "values": [
      {"measurement": "intracellular GFP fluorescence after trypsin treatment", "setting": "onion epidermal cells; [4]", "result": "granular GFP fluorescence was strongly observed"}
    ]},
    {"compound": "FT protein: FLOWERING LOCUS T protein, promoter for flowering in whole plants (florigen)", "values": [
      {"measurement": "time of flower bud formation after application", "setting": "[1]", "result": "around 40 days"},
      {"measurement": "FT protein signal in the shoot apex (Western blotting)", "setting": "[2]", "result": "FT protein signals were able to be detected in the shoot apex"},
      {"measurement": "time of flower bud formation after application", "setting": "[3]", "result": "around 40 days"}
    ]},
    {"compound": "R9 peptide: cell penetrating peptide composed of 9 arginine residues (RRRRRRRRR)", "values": [
      {"measurement": "intracellular GFP fluorescence after trypsin treatment", "setting": "onion epidermal cells; chelator-free and surfactant-free test solution, 12 hours at room temperature", "result": "no fluorescence was observed within the cells"},
      {"measurement": "number of cells showing GFP uptake with increase in R9 peptide concentration", "setting": "protoplasts of torenia; 0, 20, 200 μM R9 peptide", "result": "cells showing GFP uptake were confirmed to increase in number"},
      {"measurement": "GFP uptake into protoplasts", "setting": "protoplasts of torenia; 200 μM R9 peptide, 0.45 M mannitol, 1× PBS", "result": "good GFP uptake was observed"}
    ]},
    {"compound": "polyoxyethylene sorbitan monolaurate [Tween 20]", "values": [
      {"measurement": "intracellular GFP fluorescence after trypsin treatment", "setting": "onion epidermal cells; [4]", "result": "granular GFP fluorescence was strongly observed"}
    ]}
  ]
}
